This passage reports TGI and GI50 results from PubChem BioAssay (NCI).

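All cell lines were grown in 96-well plates and treated with compound for 48 hours. Abbreviation: GI50, concentration required for 50% inhibition of growth. TGI: total growth inhibition.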

Test systems include KM20L2 colon; UACC-62 melanoma; HS 578T breast; K-562 leukemia; DMS 114 small cell lung; HOP-18 NSCLC; LXFL 529 NSCLC; DMS 273 small cell lung; M19-MEL melanoma.
What all share (assay): NCI-60 cell line screen, 48 h

Turning to `CCOCC(=O)N[C@H]1CCc2cc(OC)c(OC)c(OC)c2-c2ccc(OC)c(=O)cc21`, the TGI in the experiment with KM20L2 colon was 0.0375 µM; with UACC-62 melanoma, over 100 µM; in the experiment on HS 578T breast, over 100 µM; in the experiment on K-562 leukemia, over 100 µM; with DMS 114 small cell lung it was 0.0289 µM; in the experiment with HOP-18 NSCLC, over 100 µM. Moreover, the TGI in the experiment with LXFL 529 NSCLC, with DMS 273 small cell lung and with M19-MEL melanoma was over 100 µM in each case.
As to `CC1CN1C(=O)NCCCCCCNC(=O)N1CC1C` (stereo not drawn), the TGI is over 100 µM with KM20L2 colon; over 100 µM in the experiment with UACC-62 melanoma; over 100 µM in the experiment on HS 578T breast; over 100 µM with K-562 leukemia; 98.3 µM in the experiment with DMS 114 small cell lung; over 100 µM in the experiment on HOP-18 NSCLC. The TGI in the experiment with LXFL 529 NSCLC, with DMS 273 small cell lung and in the experiment with M19-MEL melanoma was over 100 µM throughout.
For the compound `COc1ccc(N2C(=O)/C(=C/c3ccc(N(CCC#N)CCC#N)cc3C)N=C2c2cc([N+](=O)[O-])ccc2Cl)cc1`, the TGI in the experiment with KM20L2 colon is 7.39 µM; in the experiment on UACC-62 melanoma, over 46.4 µM; with HS 578T breast, 5.96 µM; with K-562 leukemia it was 36.7 µM; in the experiment with DMS 114 small cell lung, over 23.5 µM; in the experiment with HOP-18 NSCLC, over 100 µM. Further, the results for the TGI with LXFL 529 NSCLC, in the experiment on DMS 273 small cell lung and in the experiment on M19-MEL melanoma were over 100 µM, over 27 µM and over 100 µM, respectively.
With `NC12CC3CC(C1)CC(C(=O)O)(C3)C2`, the TGI with KM20L2 colon, with UACC-62 melanoma, with K-562 leukemia, with DMS 114 small cell lung, in the experiment with HOP-18 NSCLC and in the experiment on LXFL 529 NSCLC was over 100 µM in each case. For the same compound, the TGI in the experiment with DMS 273 small cell lung and in the experiment with M19-MEL melanoma was over 100 µM in each case.
On to `CC(SC(=S)N1CCOCC1)c1cc2oc(=O)n(C)c2cc1Cl` (stereo not drawn), for which the TGI in the experiment with KM20L2 colon, with UACC-62 melanoma, in the experiment with K-562 leukemia, in the experiment with DMS 114 small cell lung, with HOP-18 NSCLC and in the experiment with LXFL 529 NSCLC was over 100 µM in each case. For the same compound, the TGI in the experiment with DMS 273 small cell lung and with M19-MEL melanoma was over 100 µM each time.
`CCC[CH2][Sn]1([CH2]CCC)[O]C(=O)CN=Cc2c(ccc3ccccc23)[O]1`: the GI50 with KM20L2 colon was 1.09 µM; with UACC-62 melanoma, 0.229 µM; with K-562 leukemia, 0.245 µM; in the experiment on DMS 114 small cell lung, 0.139 µM; in the experiment on HOP-18 NSCLC, 0.223 µM; in the experiment on LXFL 529 NSCLC, 0.107 µM. The GI50 is 1 µM with DMS 273 small cell lung and 0.299 µM with M19-MEL melanoma. In addition, the TGI worked out at 2.29 µM with KM20L2 colon; 0.558 µM with UACC-62 melanoma; 1.09 µM in the experiment on K-562 leukemia; 0.299 µM with DMS 114 small cell lung; 1.52 µM in the experiment with HOP-18 NSCLC; 0.249 µM with LXFL 529 NSCLC. The TGI in the experiment on DMS 273 small cell lung was determined as 2.22 µM; in the experiment on M19-MEL melanoma, 1.23 µM.
As to `CCCC1N2CCCCC2[C@@H]2c3[nH]c4ccccc4c3CCN12` (stereo partly drawn), the TGI with KM20L2 colon, in the experiment on UACC-62 melanoma, with K-562 leukemia, with DMS 114 small cell lung, in the experiment on HOP-18 NSCLC and in the experiment with LXFL 529 NSCLC was over 100 µM throughout. Besides, the TGI with DMS 273 small cell lung and with M19-MEL melanoma was over 100 µM throughout.
Take `COc1ccc(NC(=O)CC(=O)N/N=C/c2ccc(N(CCC#N)S(C)(=O)=O)cc2)cc1`: the TGI in the experiment on KM20L2 colon, with UACC-62 melanoma, in the experiment on K-562 leukemia, in the experiment with DMS 114 small cell lung, with HOP-18 NSCLC and in the experiment with LXFL 529 NSCLC was over 100 µM each time. Moreover, the TGI in the experiment with DMS 273 small cell lung and with M19-MEL melanoma was over 100 µM in each case.
For `NC1=NC(c2ccccc2)CC(c2cc(Cl)ccc2O)=N1` (stereo not drawn), the TGI is 31.8 µM in the experiment on KM20L2 colon; 30.4 µM in the experiment with UACC-62 melanoma; 40.8 µM in the experiment with K-562 leukemia; 25.6 µM with DMS 114 small cell lung; 35.6 µM with HOP-18 NSCLC; 28.3 µM in the experiment with LXFL 529 NSCLC. Also, the TGI in the experiment with DMS 273 small cell lung is 25.6 µM; in the experiment on M19-MEL melanoma, 29.5 µM.
